What all share (assay): DTP human tumour cell line panel, 48 h
Test [1] concerns OVCAR-5 ovarian.
Test [2] concerns HL-60(TB) leukemia.
The subject of test [3] is SF-295 CNS.
The subject of test [4] is NCI-H226 lung.
The subject of test [5] is SK-MEL-28 melanoma.
Test [6] deals with MCF7 breast.
In test [7] the test system is A498 renal.
Test [8] concerns OVCAR-4 ovarian.
Test [9] relates to COLO 205 colon.
Test [10] deals with UO-31 renal.
Test [11] has as its system LOX IMVI melanoma.
The subject of test [12] is MALME-3M melanoma.

The record followed here is PubChem BioAssay (NCI).

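Exposure lasted 48 hours, with cells grown in 96-well plates and compounds tested at five concentrations. TGI: concentration producing complete growth inhibition.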 Some results are limits rather than exact numbers.

`CC(=O)c1csc2c1C(=O)c1scc(C(C)=O)c1C2=O`: the concentration for total growth inhibition (TGI) came to 3.45 µM in test [1]; 0.43 µM in [2]; 3.09 µM in [3]; 4.14 µM in test [4]; 3.64 µM in test [5]; 3.31 µM in test [6]. Also, the TGI in test [7] amounted to 2.93 µM; in test [8] it was 1.65 µM; in test [9], 3.63 µM; in test [10], 3.61 µM; in test [11] it was 2.9 µM; in test [12], 2.95 µM.

For `CCC1c2[nH]c3ccccc3c2C[C@H]2C(=O)NC(COC(C)(C)C)C(=O)N12` (some centres undefined), the concentration for total growth inhibition (TGI) was more than 100 µM in [1]; 60.9 µM in test [2]; 65.4 µM in test [3]; more than 100 µM in [4]; more than 100 µM in test [5]; more than 100 µM in [6]. Further, the concentration for total growth inhibition (TGI) is more than 100 µM in test [7]; more than 100 µM in test [8]; 37.6 µM in [9]; more than 100 µM in [10]; more than 100 µM in test [11]; 94.7 µM in test [12].

Regarding `CC(=O)OCC1OC(Nc2ncc(-c3ccc(C)cc3)s2)C(OC(C)=O)C(OC(C)=O)C1OC(C)=O` (centres undefined), the concentration for total growth inhibition (TGI) in test [1] is more than 100 µM; in test [2], 43.7 µM; in test [3], more than 100 µM; in test [4], 91.4 µM; in test [5], more than 100 µM; in [6], 35.8 µM. For the same molecule, the concentration for total growth inhibition (TGI) was more than 100 µM in test [7]; 60.6 µM in test [8]; more than 100 µM in test [9]; 41 µM in test [10]; more than 68.3 µM in test [11]; more than 100 µM in test [12].

Regarding `Cc1ccc(S(=O)(=O)C2=Cc3ccc(C(F)(F)F)cc3C2(O)c2cccc(C(F)(F)F)c2)cc1` (centres undefined), the TGI in [1] worked out at 5.07 µM; in [2], 3.66 µM; in test [3] it was 6.87 µM; in [4], 4.26 µM; in [5] it was 3.75 µM; in test [6] it was 4.86 µM. Also, the TGI worked out at 3.83 µM in [7]; 4.05 µM in test [8]; 3.43 µM in [9]; 6.11 µM in test [10]; 3.52 µM in test [11]; 3.48 µM in [12].

Consider `C=CCNC1=C2C[C@@H](C)C[C@@H](OC)[C@@H](OC(=O)CCCN)[C@H](C)/C=C(\C)[C@@H](OC(N)=O)[C@H](OC)/C=C\C=C(/C)C(=O)NC(=CC1=O)C2=O`, for which the TGI in test [1] is 31.8 µM; in [2] it was 19.7 µM; in [3], 31.6 µM; in [4], 36.3 µM; in [5] it was 41.9 µM; in test [6], 19.4 µM. Moreover, the TGI is 36.3 µM in [7]; 48.4 µM in [8]; 13.6 µM in test [9]; 34.2 µM in [10]; more than 47.3 µM in test [11]; 27.8 µM in [12].

On to `CCN(CC)CCn1nc(N)c2nc3cc(Cl)ccc3nc21`, for which the total growth inhibition concentration (TGI) in test [1], in test [2], in test [3], in [4], in test [5] and in test [6] was more than 100 µM throughout. For the same molecule, the concentration for total growth inhibition (TGI) in test [7], in test [8], in test [9], in test [10], in test [11] and in [12] was more than 100 µM each time.

In the case of `CO[C@H]1[C@@H](O)[C@@H](C)O[C@@H](O[C@H]2CC[C@@]3(C)[C@H](CC[C@@H]4[C@@H]3CC[C@]3(C)[C@@H](C5=CC(=O)OC5)[C@@H](OC(C)=O)C[C@]43O)C2)[C@@H]1O`, the concentration for total growth inhibition (TGI) is 0.214 µM in test [1]; 0.332 µM in test [2]; 0.55 µM in test [3]; 0.411 µM in test [4]; more than 50 µM in [5]; more than 50 µM in [6]. Also, the TGI in [7] was 1.27 µM; in test [8] it was 0.127 µM; in test [9], 0.447 µM; in [10], 0.0686 µM; in test [11], 0.194 µM; in [12] it was 0.0445 µM.

As for `N#CC(NNC(=O)Cc1ccccc1)c1ccccc1O` (centres undefined), the total growth inhibition concentration (TGI) in [1] is more than 90.9 µM; in [2], 36 µM; in test [3] it was more than 100 µM; in test [4], 68 µM; in test [5], more than 100 µM; in test [6], more than 89.5 µM. Moreover, the total growth inhibition concentration (TGI) is more than 80.3 µM in test [7]; more than 100 µM in [8]; more than 100 µM in test [9]; 25.4 µM in [10]; 31.5 µM in test [11]; 73.4 µM in [12].

For the molecule `CCN(CC)/C(Cl)=C(Cl)\C(=C1\Nc2ccc(OC)cc21)[N+](=O)[O-]`, the concentration for total growth inhibition (TGI) in [1] was more than 100 µM; in [2], more than 100 µM; in [3] it was more than 100 µM; in test [4] it was 69.2 µM; in test [5] it was more than 100 µM; in test [6], more than 100 µM. In addition, the TGI in test [7], in [8], in [9], in test [10], in [11] and in test [12] was more than 100 µM throughout.

For `COC(CN(C(=O)c1ccccc1)C1CCC2(SCCS2)c2[nH]c3ccccc3c21)OC` (centres undefined), the concentration for total growth inhibition (TGI) in test [1] was more than 100 µM; in [2], more than 100 µM; in test [3], 13.9 µM; in test [4] it was more than 100 µM; in [5] it was more than 100 µM; in test [6], more than 100 µM. Also, the TGI was more than 100 µM in test [7]; more than 100 µM in [8]; 59.3 µM in [9]; more than 100 µM in test [10]; 6.67 µM in [11]; more than 100 µM in test [12].

In the case of `CC1=C(Br)C(Br)=C(C)S1=O`, the TGI is 37.4 µM in test [1]; 18.1 µM in test [2]; 49.6 µM in test [3]; 50.2 µM in test [4]; 41.9 µM in [5]; more than 100 µM in test [6]. The total growth inhibition concentration (TGI) in test [7] is 96.5 µM; in test [8] it was more than 100 µM; in [9], 5.82 µM; in test [10], 39.3 µM; in test [11], 27.8 µM; in test [12], 39.3 µM.

Turning to `COc1ccc2c3c1O[C@H]1C(O)CCC4(O)[C@@H](C2)NCC[C@]314` (some centres undefined), the TGI in test [1], in test [2], in test [3], in test [4], in [5] and in test [6] was more than 100 µM in each case. For the same molecule, the total growth inhibition concentration (TGI) in test [7], in test [8], in test [9], in test [10], in test [11] and in test [12] was more than 100 µM throughout.

As to `Cc1cc(C)cc(C(=N)c2ccccc2Cc2cccc3ccccc23)c1`, the TGI in [1] was found to be 53.5 µM; in test [2], 33.5 µM; in test [3], 25.5 µM; in [4] it was 29.3 µM; in [5] it was 34.7 µM; in test [6], 32.2 µM. Besides, the total growth inhibition concentration (TGI) in test [7] was 87.3 µM; in test [8] it was 33.7 µM; in test [9], 52.3 µM; in [10], more than 100 µM; in test [11] it was 33 µM; in test [12], 33.4 µM.

Take `O=C(CC(c1ccccc1)N1CCCCC1)c1ccccc1` (centres undefined): the total growth inhibition concentration (TGI) in test [1] came to 32.9 µM; in [2], 33.7 µM; in [3] it was 31.2 µM; in [4], 37.4 µM; in [5], 32.4 µM; in test [6], 15.4 µM. In addition, the concentration for total growth inhibition (TGI) came out at 29.3 µM in test [7]; 40.2 µM in test [8]; 37.9 µM in [9]; 36.8 µM in [10]; 20.6 µM in test [11]; 30.7 µM in [12].

On to `COC1=C(Br)[C@H](O)[C@@]2(C=C1Br)CC(C(=O)NCCCCCN=C(N)N)=NO2`, for which the total growth inhibition concentration (TGI) in test [1], in [2], in test [3], in [4], in [5] and in test [6] was more than 10 µM throughout. Also, the total growth inhibition concentration (TGI) in test [7], in test [8], in [9], in test [10], in test [11] and in test [12] was more than 10 µM throughout.

Turning to `O=c1cc(-c2ccccc2)[nH]c2cc3c(cc12)OCO3`, the total growth inhibition concentration (TGI) in [1] was more than 100 µM; in test [2], 53 µM; in test [3], more than 42.3 µM; in [4], 27.5 µM; in test [5], more than 100 µM; in [6], more than 100 µM. The TGI is 63.1 µM in test [7]; more than 100 µM in test [8]; 65.7 µM in test [9]; more than 100 µM in [10]; more than 100 µM in [11]; more than 82.9 µM in test [12].

Take `COc1cccc(OC)c1/C=C1\OC(=O)c2cccc(OC)c21`: the TGI in test [1] is more than 100 µM; in test [2], more than 19.7 µM; in test [3], more than 28.2 µM; in [4] it was more than 29.5 µM; in [5] it was more than 100 µM; in [6], more than 100 µM. Further, the TGI is 32.3 µM in [7]; more than 100 µM in test [8]; 30.9 µM in [9]; more than 100 µM in [10]; more than 100 µM in test [11]; more than 95.5 µM in test [12].
